Measured values: patent publication US6472348B1, “Pyridone derivatives and herbicides” (Kumiai Chemical Industry Co., Ltd., priority 1996, dated 2002)

Experiments:
slender amaranth (Am) = experiment: Test Example 7: crop plant selectivity by upland field soil treatment (corn), herbicidal effects; type: in vivo; set-up: scale not given here; conditions: 21st day after application
Outline: (§1)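 Corn and weeds (green foxtail, pale smartweed, slender amaranth, common lambsquarters, China jute) sown in sand-filled pots, covered with soil and treated by soil application. Grown in a greenhouse; herbicidal effect and crop phytotoxicity scored on day 21 after application using a fixed rating scale.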

[1] = test system: common lambsquarters (Ch); experiment: as above; type: in vivo; set-up: scale not given here; conditions: 21st day after application
Outline: as §1

green foxtail (Se) = experiment: as above; type: in vivo; set-up: scale not given here; conditions: 21st day after application
Outline: as §1

pale smartweed (Po) = experiment: as above; type: in vivo; set-up: scale not given here; conditions: 21st day after application
Outline: as §1

China jute (Ab) [2] = experiment: as above; type: in vivo; set-up: scale not given here; conditions: 21st day after application
Outline: as §1

corn (Ze) = experiment: Test Example 7: crop plant selectivity by upland field soil treatment (corn), phytotoxicity; type: in vivo; set-up: scale not given here; conditions: 21st day after application
Outline: as §1

wheat (Tr) [3] = experiment: Test Example 5: crop plant selectivity by upland field soil treatment (wheat), phytotoxicity; type: in vivo; set-up: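 grade of crop injury; 5 = at least 90%; 4 = 70 to 90%; 3 = 50 to 70%; 2 = 30 to 50%; 1 = 10 to 30%; 0 = under 10%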; conditions: 21st day after application
Outline: (§2)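 Pots of sand sown with wheat and weeds (incl. Digitaria ciliaris, green foxtail, slender amaranth), seeds covered with soil, soil-applied treatment. Grown in greenhouse; herbicidal effect and crop phytotoxicity scored visually on day 21 after application against a rating scale.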

barnyardgrass (Ec) = experiment: Test Example 1: herbicidal effects by paddy field soil treatment; type: in vivo; conditions: 100 g of the active ingredient per 10 ares, 21st day after the application, index 0-5 of Table 47;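 further: grade of growth control; 5 = at least 90%; 4 = 70 to 90%; 3 = 50 to 70%; 2 = 30 to 50%; 1 = 10 to 30%; 0 = under 10%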
Outline: (§3)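 Scoring of herbicidal effect came 21 days after application of 100 g active ingredient per 10 ares to flooded (3 cm) paddy-soil pots sown with barnyardgrass, monochoria and bulrush, kept in a greenhouse.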

bulrush (Sc) = experiment: as above; type: in vivo; conditions: 100 g of the active ingredient per 10 ares, 21st day after the application, index 0-5 of Table 47;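 further: grade of growth control; 5 = at least 90%; 4 = 70 to 90%; 3 = 50 to 70%; 2 = 30 to 50%; 1 = 10 to 30%; 0 = under 10%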
Outline: as §3

monochoria (Mo) = experiment: as above; type: in vivo; conditions: 100 g of the active ingredient per 10 ares, 21st day after the application, index 0-5 of Table 47;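 further: grade of growth control; 5 = at least 90%; 4 = 70 to 90%; 3 = 50 to 70%; 2 = 30 to 50%; 1 = 10 to 30%; 0 = under 10%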
Outline: as §3

wheat (Tr) [4] = experiment: Test Example 9: crop plant selectivity by upland field foliage treatment (wheat), phytotoxicity; conditions: dose 1.6 g ai/10a, 14th day after treatment;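 further: grade of crop injury; 5 = at least 90%; 4 = 70 to 90%; 3 = 50 to 70%; 2 = 30 to 50%; 1 = 10 to 30%; 0 = under 10%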
Outline: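 Wheat and weeds sown in sand-filled pots, grown 2 weeks in a greenhouse, then foliage-treated. Herbicidal effect and crop phytotoxicity were scored 14 days after treatment against a rating scale.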

China jute (Ab) [5] = experiment: Test Example 5: crop plant selectivity by upland field soil treatment (wheat), herbicidal effects; type: in vivo; set-up: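 grade of growth control; 5 = at least 90%; 4 = 70 to 90%; 3 = 50 to 70%; 2 = 30 to 50%; 1 = 10 to 30%; 0 = under 10%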; conditions: 21st day after application
Outline: as §2

Row | SMILES | Herbicidal effects Am (slender amaranth (Am); dose 6.3 g ai/10a) | Herbicidal effects Ch ([1]; dose 6.3 g ai/10a) | Herbicidal effects Se (green foxtail (Se); dose 6.3 g ai/10a) | Herbicidal effects Po (pale smartweed (Po); dose 6.3 g ai/10a) | Herbicidal effects Ab (China jute (Ab) [2]; dose 6.3 g ai/10a) | Phytotoxicity Ze (corn (Ze); dose 6.3 g ai/10a) | Phytotoxicity Tr (wheat (Tr) [3]; dose 6.3 g ai/10a) | Herbicidal effects Ec (barnyardgrass (Ec)) | Herbicidal effects Sc (bulrush (Sc)) | Herbicidal effects Mo (monochoria (Mo)) | Phytotoxicity Tr (wheat (Tr) [4]) | Herbicidal effects Ab (China jute (Ab) [5]; dose 6.3 g ai/10a) | Herbicidal effects Am (slender amaranth (Am); dose 1.6 g ai/10a) | Herbicidal effects Ch ([1]; dose 1.6 g ai/10a) | Herbicidal effects Se (green foxtail (Se); dose 1.6 g ai/10a) | Herbicidal effects Po (pale smartweed (Po); dose 1.6 g ai/10a) | Herbicidal effects Ab (China jute (Ab) [2]; dose 1.6 g ai/10a) | Phytotoxicity Ze (corn (Ze); dose 1.6 g ai/10a) | Phytotoxicity Tr (wheat (Tr) [3]; dose 1.6 g ai/10a) | Herbicidal effects Ab (China jute (Ab) [5]; dose 1.6 g ai/10a)
1 | C=CC(O)c1cc(-c2ccc(C(F)(F)F)n(C)c2=O)c(F)cc1Cl (centres unmarked) [Compound 1-197] | 5 | 5 | 5 | 5 | 5 | 1 | 1 | 5 | 5 | 5 | 2 | 5 | – | – | – | – | – | – | – | –
2 | CCON=Cc1cc(-c2ccc(C(F)(F)F)n(C)c2=O)c(F)cc1Cl [Compound 1-187] | 5 | 5 | 5 | 5 | 5 | 1 | 1 | 5 | 5 | 5 | 2 | 5 | – | – | – | – | – | – | – | –
3 | C#CCOc1cc(-c2ccc(C(F)(F)F)n(N)c2=O)c(F)cc1Cl [1-178] | – | – | – | – | – | – | – | 5 | 5 | 5 | 2 | – | 5 | 5 | 5 | 5 | 5 | 2 | 1 | 5
4 | CCc1cc2c(Cl)cc(F)c(-c3ccc(C(F)(F)F)n(C)c3=O)c2o1 [Compound 5-2] | 5 | 5 | 5 | 5 | 5 | 0 | 1 | 5 | 5 | 5 | 2 | 5 | – | – | – | – | – | – | – | –
5 | Cn1c(C(F)(F)F)ccc(-c2cc(OCC3CC3)c(Cl)cc2F)c1=O [1-160] | 5 | 5 | 5 | 5 | 5 | 1 | 2 | 5 | 5 | 5 | 2 | 5 | – | – | – | – | – | – | – | –
6 | CCCC(=O)c1cc(-c2ccc(C(F)(F)F)n(C)c2=O)c(F)cc1Cl [Compound No. 1-194, 3-[4-chloro-2-fluoro-5-(1-oxobutyl)phenyl]-1-methyl-6-trifluoromethyl-2(1H)-pyridone] | 5 | 5 | 5 | 5 | 5 | 0 | 1 | 5 | 5 | 5 | 1 | 5 | – | – | – | – | – | – | – | –
7 | C#CC(C)Oc1cc(Cl)cc(F)c1-c1ccc(C(F)(F)F)n(C)c1=O (centres unmarked) [1′-5] | 5 | 5 | 5 | 5 | 5 | 2 | 1 | 5 | 5 | 5 | 1 | 5 | 5 | 5 | 4 | 5 | 5 | 1 | 1 | 5
8 | COCSc1cc(-c2ccc(C(F)(F)F)n(C)c2=O)c(F)cc1Cl [1-91] | 5 | 5 | 5 | 5 | 5 | 2 | – | 5 | 5 | 5 | 2 | – | 5 | 5 | 5 | 5 | 5 | 1 | 1 | 5
9 | Cn1c(C(F)(F)F)ccc(-c2c(F)cc(Cl)c3oc(CO)cc23)c1=O [Compound No. 4-5, 3-(7-chloro-5-fluoro-2-hydroxymethylbenzofuran-4-yl)-1-methyl-6-trifluoromethyl-2-(1H)-pyridone] | 5 | 5 | 5 | 5 | 5 | 0 | 1 | 5 | 5 | 5 | 2 | 5 | – | – | – | – | – | – | – | –
10 | Cn1c(C(F)(F)F)ccc(-c2cc(OCCCl)c(Cl)cc2F)c1=O [1-171] | 5 | 5 | 5 | 5 | 5 | 0 | 1 | 5 | 5 | 5 | 2 | 5 | – | – | – | – | – | – | – | –
